Measurements taken from PubChem BioAssay AID686936 (Broad Institute, 2013).

Tested on: LuxO (D47E) transcriptional regulator, Vibrio cholerae O395
Assay: PubChem AID 686936
Details: stronger effect = lower value
[1] = PK/LDH coupled NADH A340, at 100 µM
[2] = PK/LDH coupled NADH A340, rate, at 1 µM
[3] = PK/LDH coupled NADH A340, rate, at 25 µM

| Compound | ATPase rate (delta OD340/min) [1] | ATPase rate (delta OD340/min) [2] | ATPase rate (delta OD340/min) [3] |
| --- | --- | --- | --- |
| Cc1ccc2cc3c(NC(=O)c4ccco4)nn(C)c3nc2c1 | 0.00981 | 0.0527 | 0.0182 |
| O=C(Nc1nnc(-c2ccc3c(c2)OCCO3)o1)C1CCCCC1 | 0.0424 | 0.0644 | 0.0279 |
